Drawing on paper PMC10893172, “Identification of Triazolopyrimidinyl Scaffold SARS-CoV-2 Papain-Like Protease (PL^pro) Inhibitor” (Pharmaceutics, 2024), this text covers IC50 for seven compounds.

Read-outs that look alike come from different tables or passages of the source.

The test system of test [1] is SARS-CoV and SARS-CoV-2 PL^pro protein. As to conditions: known PL^pro inhibitors, literature values; cited from earlier work.
The target of test [2] is SARS-CoV-2 papain-like protease (PL^pro) (Severe acute respiratory syndrome coronavirus 2, UniProt P0DTD1). The test is described as follows: biochemical.
[3] abbreviates: 0.2 µM PL^pro, 30 µM substrate, 30 min preincubation at 25 °C, endpoint fluorescence after 2 h, triplicate, read-out: IC50.

With `C[C@H](c1cccc2ccccc12)N1CCC(C(=O)NCc2cccc(F)c2)CC1` [Hit 3K], the IC50 in test [1] is 0.15 ± 0.01 µM.
Take `O=C(N/N=C/c1cccc(OC2CSC2)c1)c1ccccc1O` [Hit 826]: the midpoint of inhibition in test [2], the IC50, lay at 328 ± 33 µM.
As to `Nc1nc2[nH]cnc2c(=S)[nH]1` [Tioguanin (6-TG)], the IC50 in test [1] is 72 ± 12 µM.
On to `Cc1cc2nn(CC(=O)NCc3ccco3)c(=O)n2c(Nc2ccc(C)c(C)c2)n1` [Hit 372], for which, in test [2] (setting [3]), the 50% inhibitory concentration (IC50) worked out at 82 ± 34 µM.
Turning to `Cn1nccc1-c1cc(C(=O)NCc2ccc(S(C)(=O)=O)cn2)c(=O)n(-c2cccc(C(F)(F)F)c2)c1` [Hit 903], in test [2] (setting [3]), the IC50 amounted to 881 ± 41 µM.
On the same count and under the same terms, to `Cc1ccc(C)c(NC(=O)Cn2nc3n(C)c(=O)c4c(c(-c5ccccc5)cn4C)n3c2=O)c1` [Hit 922] belongs 439 ± 43 µM.
Turning to “5-Amino-2-methyl-N-[2-(1-naphthyl)ethyl]-benzamide [GRL0617]”, the IC50 in test [1] is 1.61 ± 0.09 µM.
